Results as given in patent US20200282003A1, “MITOCHONDRIAL-TARGETED AN[…] AGAINST MECHANICAL VENTILATION-INDUCED DIAPHRAGM DYSFUNCTION AND SKELETAL MUSCLE ATROPHY” (Cornell University, priority 2010, published 2020).
Square brackets hold non-standard residues; d marks the D form. Peptide text beside a SMILES is read from it. Dmt = Cc1cc(O)cc(C)c1C[C@H](N)C(=O)O

Columns and labels:
[1] = tested on: several mammalian cell types; conditions: energy-independent manner; cited from earlier work
[2] = mean ± SEM
Source text: To analyze mitochondrial ROS emissions following MV-induced diaphragmatic oxidative stress and weakness, rats were randomly assigned to one of three experimental groups (n=12/group): (1) an acutely anesthetized control group; (2) a 12-hour MV group (MV); and 3) a 12-hour MV group treated with the mitochondrial-targeted antioxidant SS-31 (MVSS). Because of the large tissue requirement for our numerous dependent measures, six animals from each experimental group were used for the mitochondrial measures and the remaining six animals in each group were employed in all other biochemical assays.
Animals in the control group were acutely anesthetized with an intraperitoneal (IP) injection of sodium pentobarbital (60 mg/kg body weight). […] The mitochondrial-targeted antioxidant SS-31 was dissolved in saline and delivered in a bolus (loading) dose (3 mg/kg; subcutaneous injection) 15 min prior to initiation of MV. A constant intravenous infusion (0.05 mg/kg/hr) of SS-31 was maintained throughout MV.
All surgical procedures were performed using aseptic techniques. Animals in the MV groups were anesthetized with an IP injection of sodium pentobarbital (60 mg/kg body weight), tracheostomized, and mechanically ventilated with a pressure-controlled ventilator (Servo Ventilator 300, Siemens) for 12 hours with the following settings: upper airway pressure limit: 20 cm H2O, typical pressure generation above PEEP was 6-9 cm H2O, respiratory rate: 80 bpm; and PEEP: 1 cm H2O.
The carotid artery was cannulated to permit the continuous measurement of blood pressure and the collection of blood during the protocol. Arterial blood samples (100 μl per sample) were removed periodically and analyzed for arterial pO2, pCO2 and pH using an electronic blood-gas analyzer (GEM Premier 3000; Instrumentation Laboratory, Lexington, Mass.). Ventilator adjustments were made if arterial PCO2 exceeded 40 mm Hg. Arterial PO2 was maintained >60 mmHg throughout the experiment by increasing the FIO2 (22-26% oxygen).
A venous catheter was inserted into the jugular vein for continuous infusion of sodium pentobarbital (˜10 mg/kg/hr) and fluid replacement. Body temperature was maintained at 37° C. by use of a recirculating heating blanket and heart rate was monitored via a lead II electrocardiograph. Continuous care during the MV protocol included lubricating the eyes, expressing the bladder, removing airway mucus, rotating the animal, and passively moving the limbs. Animals also received an intramuscular injection of glycopyrrolate (0.18 mg/kg) every two hours during MV to reduce airway secretions.

[3] = rats at completion of 12 h MV with SS-31

Compound	Penetration of the plasma membrane [1]	Arterial PCO2 [2, 3]	Arterial PO2 [2, 3] [mm/Hg]	Arterial pH [2, 3]	Systolic blood pressure [2, 3] [mm/Hg]	Heart rate ([2]; rats at completion of 12 h MV, SS-31 3 mg/kg s.c. bolus + 0.05 mg/kg/hr i.v.) [beats/min]
2′,6′-Dmt-D-Arg-Phe-Lys-NH2 [SS-02]	readily penetrates	–	–	–	–	–
Cc1cc(O)cc(C)c1C[C@H](NC(=O)[C@H](N)CCCNC(=N)N)C(=O)N[C@@H](CCCCN)C(=O)N[C@@H](Cc1ccccc1)C(N)=O [SS-31, D-Arg-2′,6′-Dmt-Lys-Phe-NH2] (H-[dR][Dmt]KF-NH2)	–	46 ± 1	75 ± 5	7.41 ± 0.01	108 ± 5	347 ± 7
